Measured values: patent US20200024662A1, “METHODS FOR TREATING OPIOID ADDICTION” (ASSUREX HEALTH, INC., priority 2016, published 2020)
“Also recorded” adds a separate entry of the source.

Experiments:
[1] = test system: patients treated with Methadone in the START trial; assay: PD Model 2 binning vs Methadone completion; type: in vivo, human
Procedure: (§1) For the model analyses, models were developed that sort patients into one of three categories, Green (‘G’) Yellow (‘Y’) or Red (‘R’). Patients determined to be high risk for non-completion by the model are placed into the Red Bin. Patients at intermediate risk of non-completion are placed in the Yellow Bin, and for this study, Yellow Bin patients are treated the same as patients found to be at Low Risk of non-completion, or those who are placed in the Green Bin. Thus, the Green and Yellow bins are combined for analysis.
PD Model 2: The completion percentage was calculated for each genotype. For each gene and genotype completion percentage, the means and standard deviations were calculated. For each genotype that was one standard deviation away from the mean, towards higher completion, a score of 1 was given. For each genotype that was one standard deviation away from the mean, towards lower completion, a score of −1 was given. For genotypes that were not one standard deviation away, the raw percent difference from the mean was observed as the score. Each score was then normalized across each gene using a scale from 0.2 to 1. Each value was normalized across all genes by converting the percentages on a plus/minus scale of 0, 0.2, 0.5, and 1 according to Table 17. Values that were greater than or equal to 1 SD away were automatically scored as a 1 or −1. The conversion of genotypes to scores was as shown in Tabl 18. The patient's PD risk was calculated by summing the total genotype risk score. Bins were assigned over the range of scores that maximized completers in Green and Yellow bins and non-completers in the Red bin.
(§2) Samples from patients treated with Methadone in the START trial described in Example 1 above were used (N=352). […] Each model was tested as described below against Sample 1, Sample 2 and/or the Full Sample.
(§3) Pearson's product moment, Chi-square with Yates correction were calculated. Diagnostic tests, odds ratios, Pearson's product moment, Chi-square with Yates correction were calculated using MEDCALC and R version 3.3.1.

[2] = test system: patients treated with Methadone in the START trial; assay: PD Model 3 binning vs Methadone completion; type: in vivo, human
Procedure: as §1
PD Model 3: The completion percentage was calculated for each genotype. For each genotype, the raw percent difference of completion compared to the mean of completion was assigned as the genotype's PD score. The patient's PD risk was calculated by summing the total genotype risk score. Bins were assigned over the range of scores that maximized completers in Green and Yellow bins and non-completers in the Red bin.
as §2, §3

[3] = test system: patients treated with Methadone in the START trial; assay: PK/PD Model 2 binning vs Methadone completion; type: in vivo, human
Procedure: as §1
Three separate PK/PD Models were generated by combining the PK model with each of the three PD models separately as follows. For each PKPD model, the corresponding PD risk score was added to the raw PK score (bin). A total PD risk score that was negative, represents a reduction of the baseline PK score, while a total PD risk score that was positive represented an increase in the baseline PK score.
as §2, §3

START trial patients [4] = assay: Combinatorial gene modeling: composite genetic risk score (biology-based and data-based) vs non-completion
START trial patients [5] = assay: Single-gene logistic regression of non-completion of 24-week opioid agonist replacement therapy (START trial)
[6] = PD Model 2, Full Sample, Green bin, Risk Score −4.2 to −0.2
[7] = PD Model 2, Full Sample, Red bin, Risk Score 1.3+
[8] = PD Model 2, Full Sample, Yellow bin, Risk Score 0.1 to 1
[9] = PD Model 2, Sample 1, Green bin, Risk Score −3.3 to −0.2
[10] = PD Model 2, Sample 1, Red bin, Risk Score 1.3 to 3.7
[11] = PD Model 2, Sample 1, Yellow bin, Risk Score 0.2 to 1
[12] = PD Model 2, Sample 2, Green bin, Risk Score −3.2 to −1
[13] = PD Model 2, Sample 2, Red bin, Risk Score 0.5 to 2.7
[14] = PD Model 2, Sample 2, Yellow bin, Risk Score −0.9 to 0.3
[15] = PD Model 3, Full Sample, Green bin, Risk Score −2.3 to −0.3
[16] = PD Model 3, Full Sample, Red bin, Risk Score 1+
[17] = PD Model 3, Full Sample, Yellow bin, Risk Score −0.2 to 0.9
[18] = PD Model 3, Sample 1, Green bin, Risk Score −1.8 to −0.3
[19] = PD Model 3, Sample 1, Red bin, Risk Score 1 to 2.1
[20] = PD Model 3, Sample 1, Yellow bin, Risk Score −0.2 to 0.9
[21] = PD Model 3, Sample 2, Green bin, Risk Score −2.1 to −0.7
[22] = PD Model 3, Sample 2, Red bin, Risk Score 0.2 to 2
[23] = PD Model 3, Sample 2, Yellow bin, Risk Score −0.6 to 0.1
[24] = PK/PD Model 2, Full Sample, Green bin, Risk Score −2.2 to 1
[25] = PK/PD Model 2, Full Sample, Red bin, Risk Score 2.7 to 4.7
[26] = PK/PD Model 2, Full Sample, Yellow bin, Risk Score 1.1 to 2.5
[27] = PK/PD Model 2, Sample 1, Green bin, Risk Score −2.3 to 2
[28] = PK/PD Model 2, Sample 1, Red bin, Risk Score 3.3 to 6.7
[29] = PK/PD Model 2, Sample 1, Yellow bin, Risk Score 2.2 to 3.2
[30] = PK/PD Model 2, Sample 2, Green bin, Risk Score −2.2 to 1
[31] = PK/PD Model 2, Sample 2, Red bin, Risk Score 2.7 to 4.7
[32] = PK/PD Model 2, Sample 2, Yellow bin, Risk Score 1.1 to 2.5
[33] = composite genetic risk score vs non-completion, adjusted for Dose-bin, 25 gene combinations
[34] = Table 4.3, 24-week treatment, logistic regression with dose category

## CCC(=O)C(CC(C)N(C)C)(c1ccccc1)c1ccccc1 (stereo not shown) [Methadone, methadone]
[1]; [6]
  Completers: 101
  Non Completers: 7
[1]; [7]
  Completers: 86
  Non Completers: 20
[1]; [8]
  Completers: 120
  Non Completers: 18
[1]; [9]
  Completers: 58
  Non Completers: 3
[1]; [10]
  Completers: 43
  Non Completers: 12
[1]; [11]
  Completers: 55
  Non Completers: 5
[1]; [12]
  Completers: 70
  Non Completers: 2
[1]; [13]
  Completers: 32
  Non Completers: 9
[1]; [14]
  Completers: 57
  Non Completers: 6
[2]; [15]
  Completers: 137
  Non Completers: 9
[2]; [16]
  Completers: 39
  Non Completers: 10
[2]; [17]
  Completers: 131
  Non Completers: 26
[2]; [18]
  Completers: 74
  Non Completers: 2
[2]; [19]
  Completers: 20
  Non Completers: 7
[2]; [20]
  Completers: 62
  Non Completers: 11
[2]; [21]
  Completers: 77
  Non Completers: 2
[2]; [22]
  Completers: 29
  Non Completers: 9
[2]; [23]
  Completers: 53
  Non Completers: 6
[3]; [24]
  Completers: 167
  Non Completers: 8
[3]; [25]
  Completers: 60
  Non Completers: 20
[3]; [26]
  Completers: 80
  Non Completers: 17
[3]; [27]
  Completers: 88
  Non Completers: 3
[3]; [28]
  Completers: 27
  Non Completers: 8
[3]; [29]
  Completers: 41
  Non Completers: 9
[3]; [30]
  Completers: 92
  Non Completers: 2
[3]; [31]
  Completers: 19
  Non Completers: 9
[3]; [32]
  Completers: 48
  Non Completers: 6
START trial patients [4]; Biology-Based, ORG4-CYP2B6-CYP2C19
  Odds Ratio for Non-Completers: 1.38
START trial patients [4]; Biology-Based, ORG4-CYP2C19
  Odds Ratio for Non-Completers: 1.53
START trial patients [4]; Biology-Based, ORG4-CYP2C19-1A2
  Odds Ratio for Non-Completers: 1.53
START trial patients [4]; Biology-Based, ORG4-CYP2C19-2C9
  Odds Ratio for Non-Completers: 1.44
START trial patients [4]; Biology-Based, ORG4-CYP2C19-2D6
  Odds Ratio for Non-Completers: 1.34
START trial patients [4]; Data-Based, ORG4-CYP2B6-CYP2C19
  Odds Ratio for Non-Completers: 1.9
START trial patients [4]; Data-Based, ORG4-CYP2C19
  Odds Ratio for Non-Completers: 1.76
START trial patients [4]; Data-Based, ORG4-CYP2C19-1A2
  Odds Ratio for Non-Completers: 1.46
START trial patients [4]; Data-Based, ORG4-CYP2C19-2C9
  Odds Ratio for Non-Completers: 1.77
START trial patients [4]; Data-Based, ORG4-CYP2C19-2D6
  Odds Ratio for Non-Completers: 1.72
START trial patients [4]; [33]
  composite endpoints significant, biology-based model: 7 of 25
  composite endpoints significant, data-based model: 23 of 25
START trial patients [5]; [34]
  OR (95% CI) of non-completion, COMT VAL/MET vs MET/MET: 2.76 (0.99-7.68)
  OR (95% CI) of non-completion, COMT VAL/VAL vs MET/MET: 3.16 (1.07-9.31)
  OR (95% CI) of non-completion, COMT VAL/VAL vs VAL/MET: 1.14 (0.56-2.34)
  OR (95% CI) of non-completion, CYP3A4 EM vs IM + PM: 1.66 (0.48-5.77)
  OR (95% CI) of non-completion, HTR2A Intermediate vs Normal: 0.58 (0.25-1.36)
  OR (95% CI) of non-completion, HTR2A Intermediate vs Reduced: 0.73 (0.35-1.52)
  OR (95% CI) of non-completion, HTR2A Normal vs Reduced: 1.26 (0.51-3.09)
  OR (95% CI) of non-completion, SLC6A4 L/L vs S/S: 0.54 (0.23-1.23)
  OR (95% CI) of non-completion, SLC6A4 L/S vs L/L: 0.77 (0.36-1.65)
  OR (95% CI) of non-completion, SLC6A4 L/S vs S/S: 0.41 (0.19-0.91)
START trial patients [5]; […]
  times more likely not to complete the 24-week treatment, SLC6A4 reduced phenotype compared to intermediate phenotype: 2.41 times
START trial patients [5]; significance at p-value ≤0.05 in the single-gene logistic regression models
  effect of dose level (Dose-bin-category covariate) on non-completion: significant for all eleven genes; also recorded: played an important role
START trial patients [5]; text statement of odds ratio
  times more likely not to complete the 24-week treatment, COMT high phenotype compared to reduced phenotype: 3.16 times
